Laboratory results taken from publication PMC11404609, “Gut microbiota-mediated C-sulfonate metabolism impairs the bioavailability and anti-cholestatic efficacy of andrographolide” (Gut Microbes, 2024).
Where “and” joins values, the source holds several entries; their conditions need not be identical. Identical values can stand only once. Entries after “also recorded” stand apart in the source; their conditions may differ.

Assays:
[1] = Plasma pharmacokinetics of AP after oral administration in rats; type: in vivo; details: for AUC(0-t) / Cmax / Tmax / half-life / AUC(0-inf): rat, plasma, po, 120 mg/kg, mean ± SD; for AUC(0-t) / Cmax / Tmax / half-life / AUC(0-inf) / Fr (%) relative oral bioavailability: AP 120 mg/kg oral gavage
Procedure: Control and ABX rats were orally administered a single dose of AP at 120 mg/kg. Blood samples (500 μL) were collected at predetermined time intervals (0, 5, 10, 20, 30, 40, 60, 90, 120, 180, 240, 360, and 480 min). In some cases, APS reductase inhibitor bromocriptine mesylate (20 mg/kg, p.o.) or Na2SO4 (200 mg/kg, p.o.) was given to rats 1 week before AP treatment.
The pharmacokinetic parameters of AP including peak time (Tmax), maximum concentration (Cmax), area under the curve from zero time to the last time point measured (AUC0-t), area under the curve from zero time to infinity (AUC0-∞), and elimination half-life (t1/2) were estimated using DAS 2.0 software (Shanghai, China). The relative oral bioavailability (Fr) of AP was calculated by the following equation: Fr(%)=AUC0−∞of ABX/Inhibitor/SO42−/D.piger/AUC0−∞of Control×100%
An ACQUITY^TM UPLC-MS/MS system equipped with an ACQUITY^TM UPLC BEH C18 Column (50 × 2.1 mm I.D., 1.7 μm, Waters, Milford, MA, USA) was utilized for the quantification of AP and APM as previously described.[47] Briefly, the detection samples (50 μL) were mixed with 50 μL of IS (50 ng/mL). AP and APM were extracted by 400 μL cold methanol. Supernatants were dried under nitrogen stream. Then, the residue was dissolved with 50% methanol in water, centrifuged for 30 min at 13,000 rpm, and 10 µL of the supernatant was subjected to UPLC-MS/MS analysis. The mobile phases consisted of eluent A (water) and eluent B (methanol) with a gradient elution as follows: 0–0.8 min, 10% B; 0.8–1.2 min, 10–90% B; 1.2–5.0 min, 90% B; 5.0–5.5 min, 90–10% B; 5.5–7.0 min, 10% B. The flow rate was 0.3 mL/min and the injection volume of all samples was 10 μL. The quantification of AP, APM and IS was performed by UPLC-MS/MS using an MRM method with the transitions of m/z 349.1→m/z 287.2 for AP, m/z 413.2→m/z 287.2 for APM, m/z 269→m/z 133 for IS.

[2] = test system: ANIT-induced cholestatic liver injury; assay: Anti-cholestatic effect in ANIT-induced cholestatic liver injury (plasma ALT, AST, TBA, TBIL, liver H&E); type: in vivo, mice; details: for anti-cholestatic effect: AP 200 mg/kg
Procedure: To investigate the impact of gut microbiota on the anti-cholestatic effect of AP, Control and ABX mice were divided into five groups, respectively: Vehicle, AP (200 mg/kg), ANIT (50 mg/kg), ANIT+AP (200 mg/kg), and ANIT+S-AMe (100 mg/kg).
Similarly, to investigate the impact of C-sulfonate metabolism on the anti-cholestatic effect of AP, mice were randomly divided into two groups: p.o. group (oral administration) and i.p. group (intraperitoneal injection). The p.o. group was further divided into six subgroups: Vehicle, AP (400 mg/kg), ANIT (50 mg/kg), ANIT+AP (100 mg/kg), ANIT+AP (200 mg/kg), ANIT+AP (400 mg/kg). While the i.p. group was divided into five subgroups: Vehicle, AP (200 mg/kg), ANIT (50 mg/kg), ANIT+AP (100 mg/kg), ANIT+AP (200 mg/kg).
Additionally, to investigate the effect of APS reductase inhibitor on the anti-cholestatic effect of AP, mice were randomly divided into Control and Inhibitor groups, each further divided into five subgroups: Vehicle, AP (200 mg/kg), ANIT (50 mg/kg), ANIT+AP (200 mg/kg), and ANIT+S-AMe (100 mg/kg). The mice received APS reductase inhibitor bromocriptine mesylate by oral gavage (20 mg/kg, p.o.) 2 weeks before AP treatment and continued until the end of the experiment. Furthermore, to investigate the important role of FXR in the anti-cholestatic effect of AP, WT and Fxr^-/- mice were, respectively, divided into the following groups: Vehicle, ANIT (50 mg/kg), and ANIT+AP (200 mg/kg).
In pharmacodynamic experiments, mice were administered AP at various dosages through different routes daily for a duration of 2 weeks. Additionally, S-AMe was administered at a dosage of 100 mg/kg via intraperitoneal injection (i.p.) daily for 2 weeks. A single dose of ANIT (50 mg/kg, p.o.) was administered 48 h before euthanizing the mice. At the conclusion of each experiment, the mice were euthanized, and blood samples were collected for biochemical analysis and tissue samples for histological examination and UPLC-MS/MS analysis.
Biochemical indicators of cholestatic liver injury, including alanine aminotransferase (ALT), aspartate aminotransferase (AST), total bile acid (TBA), and total bilirubin (TBIL), were assessed using assay kits obtained from Nanjing JianCheng Bioengineering Institute (Nanjing, China). The experimental procedures were conducted in accordance with the protocols provided by the manufacturer. Fresh liver tissues were fixed in 10% formalin, and prepared as 4-μm paraffin sections. These sections were stained with hematoxylin and eosin for examination of liver histopathology. The stained tissue sections were then observed and captured under an optical microscope for further analysis. Liver histological changes were quantified using a slightly modified scoring system published previously.[45] The scoring system comprised four histological features that were evaluated semi-quantitatively: necrosis and fibrosis (0–4), steatosis (0–3), lobular inflammation (0–2), and hepatocellular ballooning (0–2). The liver necrosis and fibrosis areas were quantified by area fraction analysis (Image J software, V1.8.0, National Institutes of Health, USA).[46]

[3] = SD, rats, Control group (Table 1), n = 4
[4] = Sprague-Dawley (SD), rats, Control group (Table 2), n = 4
[5] = Sprague-Dawley (SD), rats, Inhibitor group (bromocriptine mesylate 20 mg/kg p.o. 1 week before), n = 4
[6] = Sprague-Dawley (SD), rats, SO4^2- group (Na2SO4 200 mg/kg p.o. 1 week before), n = 5
[7] = Sprague-Dawley, rats, Control group (Table 2), n = 4
[8] = Sprague-Dawley, rats, Inhibitor group (bromocriptine mesylate 20 mg/kg p.o. 1 week before), n = 4
[9] = Sprague-Dawley, rats, SO4^2- group (Na2SO4 200 mg/kg p.o. 1 week before), n = 5

C=C1CC[C@@H]2[C@](C)(CO)[C@H](O)CC[C@@]2(C)[C@@H]1C/C=C1/C(=O)OC[C@H]1O [AP, Andrographolide]
enhancement in the relative oral bioavailability of AP ([1]; ABX-treated rats vs Control): 70.11% and 70%
AUC(0-t) ([1]; SD, rats, ABX group, n = 4): 4430 ng·h/mL
Cmax ([1]; SD, rats, ABX group, n = 4): 1330 ± 250 ng/mL
Tmax ([1]; SD, rats, ABX group, n = 4): 0.708 h
half-life ([1]; SD, rats, ABX group, n = 4): 2.31 ± 0.734 h
AUC(0-t) [1, 3]: 2360 ng·h/mL
Cmax [1, 3]: 690 ± 190 ng/mL
Tmax [1, 3]: 0.833 h
half-life [1, 3]: 3.07 ± 0.928 h
AUC(0-inf) [1, 4]: 3690 ng·h/mL
AUC(0-t) [1, 4]: 3440 ng·h/mL
AUC(0-inf) [1, 5]: 8020 ng·h/mL
AUC(0-t) [1, 5]: 7520 ng·h/mL
AUC(0-inf) [1, 6]: 1870 ng·h/mL
AUC(0-t) [1, 6]: 1360 ng·h/mL
half-life [1, 6]: 4.38 ± 3.23 h
AUC(0-inf) ([1]; Sprague-Dawley, rats, ABX group, n = 4): 5110 ng·h/mL
AUC(0-inf) ([1]; Sprague-Dawley, rats, Control group (Table 1), n = 4): 3000 ng·h/mL
Cmax [1, 7]: 1420 ± 710 ng/mL
Tmax [1, 7]: 0.5 h
half-life [1, 7]: 2.04 ± 0.397 h
Cmax [1, 8]: 2750 ± 710 ng/mL
Tmax [1, 8]: 0.583 h
half-life [1, 8]: 1.82 ± 0.589 h
Cmax [1, 9]: 490 ± 190 ng/mL
Tmax [1, 9]: 0.533 h
Fr (%) relative oral bioavailability ([1]; rats, ABX group vs Control (AUC0-∞ ratio)): 170.11%
Fr (%) relative oral bioavailability ([1]; rats, Inhibitor group vs Control (AUC0-∞ ratio)): 217.24%
Fr (%) relative oral bioavailability ([1]; rats, SO4^2- group vs Control (AUC0-∞ ratio)): 50.70%
increase in AP bioavailability ([1]; rats, inhibition of APS reductase by bromocriptine mesylate): 117.24% and 117%
reduction in AP bioavailability ([1]; rats, treatment of Na2SO4): 49.30%
effect on ANIT-induced elevation of plasma biochemical indicators, liver cell necrosis, inflammatory cell infiltration ([2]; ABX mice (intestinal flora depleted), AP 200 mg/kg p.o., 2 weeks): markedly ameliorated
protective effect against ANIT-induced liver injury ([2]; Control mice with intact intestinal flora, AP 200 mg/kg p.o., 2 weeks): weak protective effect
anti-cholestatic effect ([2]; Fxr^-/- mice): completely abolished; also recorded: no protective effect
anti-cholestatic effect ([2]; WT mice): superior anti-cholestatic effect; also recorded: significant effects
alleviation of ANIT-induced cholestatic liver injury ([2]; mice, AP 200 mg/kg p.o. alone (inhibitor study)): did not exhibit significant alleviation
alleviation of ANIT-induced cholestatic liver injury ([2]; mice, AP 200 mg/kg p.o. in combination with APS reductase inhibitor bromocriptine mesylate 20 mg/kg p.o.): notable amelioration of liver injury
anti-cholestatic effect vs ANIT group ([2]; mice, intraperitoneal AP 100 mg/kg or 200 mg/kg): superior anti-cholestatic effect
hepatoprotective effect vs ANIT group ([2]; mice, oral AP 400 mg/kg): significant efficacy
